Laboratory results taken from patent US4016148A, “Peptide derivatives of phosphonic and phosphinic acids and intermediates therefor” (Hoffmann-La Roche Inc., priority 1975, dated 1977).
Residues, ends and D or L forms follow the SMILES beside them.

Experiments:
[1] = system: E. coli; experiment: Potentiation of antibiotics by the peptide derivative: MIC and fractional inhibitory concentration index against E. coli in Davis minimal medium; format: cell-based; details: for Fractional Inhibitory Concentration Index: antibiotic in combination with (1R)-1-(L-alanylamino)-ethylphosphonic acid; for Minimum Inhibitory Concentration, Antibiotic + peptide derivative: concentration of the antibiotic: in combination with (1R)-1-(L-alanylamino)-ethylphosphonic acid
Excerpt: The peptide derivatives provided by this invention potentiate the activity of antibiotics (e.g. penicillin and cephalosporin antibiotics and D-cycloserine). Thus, for example the fractional inhibitory concentration indices of (1R)-1-(L-alanylamino)-ethylphosphonic acid in combination with a cephalosporin, with a penicillin antibiotic and with D-cycloserine against E. coli in Davis minimal medium are given in Table 1.

[2] = system: E. coli; experiment: Fractional inhibitory concentration indices of peptide derivatives in a 2:1 ratio with D-cycloserine against E. coli in Davis minimal medium; format: cell-based; details: peptide derivative in a 2:1 ratio with D-cycloserine
Excerpt: Again, for example, the fractional inhibitory concentration indices of (1R)-1-(L-alanylamino)-ethylphosphonic acid (Derivative A), (1R)-1-(L-alanyl-L-alanylamino)-ethylphosphonic acid (Derivative B), (1R)-1-(L-alanyl-L-alanyl-L-alanylamino)-ethylphosphonic acid (Derivative C), (1R)-1-(L-alanyl-L-alanyl-L-alanyl-L-alanylamino)-ethylphosphonic acid (Derivative D), (1R)-1-(L-phenylalanylamino)-ethylphosphonic acid (Derivative E), (1R)-1-(L-valylamino)-ethylphosphonic acid (Derivative F) and (1R)-1-(L-leucylamino)-ethylphosphonic acid (Derivative G) in a 2:1 ratio with D-cycloserine against E. coli in Davis minimal medium are given in Table 2.

## CC1(C)S[C@@H]2[C@H](NC(=O)[C@H](N)c3ccc(O)cc3)C(=O)N2[C@H]1C(=O)O [Amoxycillin]
[1]
  Minimum Inhibitory Concentration, Antibiotic alone: 4 µg/mL
  Fractional Inhibitory Concentration Index: 0.3
  Minimum Inhibitory Concentration, Antibiotic + peptide derivative: concentration of the antibiotic: 1 µg/mL

## C[C@H](N)C(=O)N[C@@H](C)P(=O)(O)O [Derivative A, (1R)-1-(L-alanylamino)-ethylphosphonic acid]
[1]; in combination with Amoxycillin
  Minimum Inhibitory Concentration, Antibiotic + peptide derivative: concentration of the peptide derivative: 0.06 µg/mL
[1]; in combination with Cephradine
  Minimum Inhibitory Concentration, Antibiotic + peptide derivative: concentration of the peptide derivative: 0.25 µg/mL
[1]; in combination with D-Cycloserine
  Minimum Inhibitory Concentration, Antibiotic + peptide derivative: concentration of the peptide derivative: 0.25 µg/mL
[2]
  Fractional Inhibitory Concentration Index: 0.3
  Fractional Inhibitory Concentration of D-cycloserine: 0.06

## C[C@H](N)C(=O)N[C@@H](C)C(=O)N[C@@H](C)C(=O)N[C@@H](C)P(=O)(O)O [Derivative C, (1R)-1-(L-alanyl-L-alanyl-L-alanylamino)-ethylphosphonic acid]
[2]
  Fractional Inhibitory Concentration Index: 0.1
  Fractional Inhibitory Concentration of D-cycloserine: 0.05

## CC1=C(C(=O)O)N2C(=O)[C@@H](NC(=O)[C@H](N)C3=CCC=CC3)[C@H]2SC1 [Cephradine]
[1]
  Minimum Inhibitory Concentration, Antibiotic alone: 16 µg/mL
  Fractional Inhibitory Concentration Index: 0.5
  Minimum Inhibitory Concentration, Antibiotic + peptide derivative: concentration of the antibiotic: 4 µg/mL

## CC(C)[C@H](N)C(=O)N[C@@H](C)P(=O)(O)O [Derivative F, (1R)-1-(L-valylamino)-ethylphosphonic acid]
[2]
  Fractional Inhibitory Concentration Index: 0.60
  Fractional Inhibitory Concentration of D-cycloserine: 0.13

## C[C@H](NC(=O)[C@@H](N)Cc1ccccc1)P(=O)(O)O [Derivative E, (1R)-1-(L-phenylalanylamino)-ethylphosphonic acid]
[2]
  Fractional Inhibitory Concentration Index: 0.48
  Fractional Inhibitory Concentration of D-cycloserine: 0.13

## CC(C)C[C@H](N)C(=O)N[C@@H](C)P(=O)(O)O [Derivative G, (1R)-1-(L-leucylamino)-ethylphosphonic acid]
[2]
  Fractional Inhibitory Concentration Index: 0.27
  Fractional Inhibitory Concentration of D-cycloserine: 0.12

## N[C@@H]1CONC1=O [D-Cycloserine]
[1]
  Minimum Inhibitory Concentration, Antibiotic alone: 64 µg/mL
  Fractional Inhibitory Concentration Index: 0.25
  Minimum Inhibitory Concentration, Antibiotic + peptide derivative: concentration of the antibiotic: 0.25 µg/mL

## C[C@H](N)C(=O)N[C@@H](C)C(=O)N[C@@H](C)C(=O)N[C@@H](C)C(=O)N[C@@H](C)P(=O)(O)O [Derivative D, (1R)-1-(L-alanyl-L-alanyl-L-alanyl-L-alanylamino)-ethylphosphonic acid] (HELM PEPTIDE1{A.A.A.A.[C[C@H](N[*:1])P(=O)(O)O]}$$$$V2.0)
[2]
  Fractional Inhibitory Concentration Index: 0.2
  Fractional Inhibitory Concentration of D-cycloserine: 0.10

## C[C@H](N)C(=O)N[C@@H](C)C(=O)N[C@@H](C)P(=O)(O)O [Derivative B, (1R)-1-(L-alanyl-L-alanylamino)-ethylphosphonic acid]
[2]
  Fractional Inhibitory Concentration Index: 0.2
  Fractional Inhibitory Concentration of D-cycloserine: 0.03
